US20080253978A1, “Derivatives of Pyrrolyltriazine Together with Methods for Obtaining Them and Their Use as Protecting Agents Uv Radiation” (ISDIN, S.A., priority 2005, published 2008)
Several values for one entry are separate records, joined by “and”; a condition that tells them apart may be missing. Identical values can stand only once. Values belong to the compound of their own block, whether it stands above or below them.

Columns and labels:
[1] = UV absorption (λmax, εmax) in solution; type: physicochemical

UV λmax ([1]; ethanol): 332 nm
εmax ([1]; ethanol): 71000 M⁻¹ cm⁻¹
Compound: c1ccc(Cn2cccc2-c2nc(Nc3ccc(-c4cn5ccccc5n4)cc3)nc(Nc3ccc(-c4cn5ccccc5n4)cc3)n2)cc1 [Example 6, 2-(1-benzyl-1H-pyrrol-2-yl)-4,6-bis[4-(imidazo[1,2-a]pyridin-2-yl)phenylamino]-1,3,5-triazine]

melting point: 66 to 68 °C
εmax ([1]; chloroform): 66000 M⁻¹ cm⁻¹
λmax ([1]; chloroform): 350-352 nm
Compound: CCCCC(CC)COc1ccc(-c2nc(-c3ccc(OCC(CC)CCCC)cc3O)nc(-c3cccn3Cc3ccccc3)n2)c(O)c1 (stereo not drawn) [Example 1, 2-(1-benzyl-1H-pyrrol-2-yl)-4,6-bis[4-(2-ethylhexyloxy)-2-hydroxyphenyl]-1,3,5-triazine]

UV λmax ([1]; MeOH): 307 nm
εmax ([1]; MeOH): 67000 M⁻¹ cm⁻¹
Compound: c1ccc(Cn2cccc2-c2nc(Nc3ccc(-n4cccn4)cc3)nc(Nc3ccc(-n4cccn4)cc3)n2)cc1 [Example 12, 2-(1-benzyl-1H-pyrrol-2-yl)-4,6-bis[4-(1H-pyrazol-1-yl)phenylamino]-1,3,5-triazine]

UV λmax ([1]; CHCl3/MeOH): 315 nm
εmax ([1]; CHCl3/MeOH): 76000 M⁻¹ cm⁻¹
Compound: CCCCC(CC)COC(=O)c1ccc(Nc2nc(Nc3ccc(C(=O)OCC(CC)CCCC)cc3)nc(-c3cccn3Cc3ccccc3)n2)cc1 (stereo not drawn) [Example 9, 2-(1-benzyl-1H-pyrrol-2-yl)-4,6-bis[4-((2-ethylhexyloxy)carbonyl)phenylamino]-1,3,5-triazine]

UV λmax ([1]; CHCl3): 336 nm
εmax ([1]; CHCl3): 102000 M^1 cm^−1
Compound: C(=C\c1ccc(Nc2nc(Nc3ccc(/C=C/c4ccccc4)cc3)nc(-c3cccn3Cc3ccccc3)n2)cc1)/c1ccccc1 [Example 15, 2-(1-benzyl-1H-pyrrol-2-yl)-4,6-bis[4-(E)-styrylphenylamino]-1,3,5-triazine]

melting point: 115 to 118 °C
UV λmax ([1]; ethanol): 330 nm
εmax ([1]; ethanol): 80000 M⁻¹ cm⁻¹
Compound: O=C(c1ccccc1)c1ccc(Nc2nc(Nc3ccc(C(=O)c4ccccc4)cc3)nc(-c3cccn3Cc3ccccc3)n2)cc1 [Example 4, 2-(1-benzyl-1H-pyrrol-2-yl)-4,6-bis(4-benzoylphenylamino)-1,3,5-triazine]

Compound: c1ccc(Cn2cccc2-c2nc(Nc3ccc(-c4ccccc4)cc3)nc(Nc3ccc(-c4ccccc4)cc3)n2)cc1 [Example 3, 2-(1-benzyl-1H-pyrrol-2-yl)-4,6-bis(biphenyl-4-ylamino)-1,3,5-triazine]
melting point: 185 to 186 °C
UV λmax ([1]; ethanol): 309 nm
εmax ([1]; ethanol): 73000 M⁻¹ cm⁻¹

UV λmax ([1]; MeOH): 336 nm
εmax ([1]; MeOH): 57000 M⁻¹ cm⁻¹
Compound: CCOC(=O)/C=C/c1ccc(Nc2nc(Nc3ccc(/C=C/C(=O)OCC)cc3)nc(-c3cccn3Cc3ccccc3)n2)cc1 [Example 14, 2-(1-benzyl-1H-pyrrol-2-yl)-4,6-bis[4-((E)-3-ethoxy-3-oxoprop-1-enyl)phenylamino]-1,3,5-triazine]

UV λmax ([1]; DMSO): 338 nm
εmax ([1]; DMSO): 55000 M⁻¹ cm⁻¹
Compound: 2-(1-benzyl-1H-pyrrol-2-yl)-4,6-bis[4-(H-imidazo[1,2-a]pyridin-2-yl)phenylamino]-1,3,5-triazine [Example 10]

Compound: CCCCOC(=O)c1ccc(Nc2nc(Nc3ccc(C(=O)OCCCC)cc3)nc(-c3cccn3Cc3ccccc3)n2)cc1 [Example 2, 2-(1-benzyl-1H-pyrrol-2-yl)-4,6-bis[4-(butoxycarbonyl)phenylamino]-1,3,5-triazine]
melting point: 173 to 174 °C
εmax ([1]; chloroform): 64000 M⁻¹ cm⁻¹
λmax ([1]; chloroform): 312 nm

UV λmax ([1]; MeOH): 263 nm and 308 nm
εmax ([1]; MeOH, at λmax=263 nm): 54000 M⁻¹ cm⁻¹
εmax ([1]; MeOH, at λmax=308 nm): 52000 M⁻¹ cm⁻¹
Compound: c1ccc(Cn2cccc2-c2nc(Nc3ccc4ccccc4c3)nc(Nc3ccc4ccccc4c3)n2)cc1 [Example 13, 2-(1-benzyl-1H-pyrrol-2-yl)-4,6-bis[naphthalen-2-ylamino]-1,3,5-triazine]

Compound: CCCCOC(=O)c1ccc(Nc2nc(Nc3ccc(C(=O)OCCCC)cc3)nc(-c3cccn3C(c3ccccc3)c3ccccc3)n2)cc1 [Example 7, 2-(1-benzydryl-1H-pyrrol-2-yl)-4,6-bis[4-(butoxycarbonyl)phenylamino]-1,3,5-triazine]
melting point: 80 to 82 °C
UV λmax ([1]; ethanol): 315 nm
εmax ([1]; ethanol): 81000 M⁻¹ cm⁻¹

melting point: > 275 °C
Compound: Oc1ccc(-c2nc(-c3ccc(O)cc3O)nc(-c3cccn3Cc3ccccc3)n2)c(O)c1 [Example 1 b), 2-(1-benzyl-1H-pyrrol-2-yl)-4,6-bis(2,4-dihydroxyphenyl)-1,3,5-triazine]

UV λmax ([1]; CHCl3/MeOH): 327 nm
εmax ([1]; CHCl3/MeOH): 100000 M^1 cm^−1
Compound: c1ccc(Cn2cccc2-c2nc(Nc3ccc(-c4nc5ccccc5[nH]4)cc3)nc(Nc3ccc(-c4nc5ccccc5[nH]4)cc3)n2)cc1 [Example 11, 2-(1-benzyl-1H-pyrrol-2-yl)-4,6-bis[4-(1H-benzo[d]imidazol-2-yl)phenylamino]-1,3,5-triazine]

melting point: 140 to 142 °C
UV λmax ([1]; ethanol): 292 nm
εmax ([1]; ethanol): 77000 M⁻¹ cm⁻¹
Compound: O=C1c2ccccc2-c2cc(Nc3nc(Nc4ccc5c(c4)-c4ccccc4C5=O)nc(-c4cccn4Cc4ccccc4)n3)ccc21 [Example 5, 2-(1-benzyl-1H-pyrrol-2-yl)-4,6-bis(9-oxo-9H-fluoren-3-ylamino)-1,3,5-triazine]
